Results reported in ChEMBL document CHEMBL4417631, “Oral peptide inhibitors of interleukin-23 receptor and their use to treat inflammatory bowel diseases” (2017).
Where a SMILES comes first, the peptide text is derived from it. Bridges are numbered along the chain shown (N, C = ends). Roman numbers before positions name the chains, in order.

The molecules below were run against T1, Interleukin-23 receptor (Homo sapiens, UniProt Q5VWK5) (assay: Inhibition of interleukin-23 binding to human interleukin-23 receptor incubated for 2 hrs by competitive binding ELISA).
T1 sequence (Q5VWK5 whole entry): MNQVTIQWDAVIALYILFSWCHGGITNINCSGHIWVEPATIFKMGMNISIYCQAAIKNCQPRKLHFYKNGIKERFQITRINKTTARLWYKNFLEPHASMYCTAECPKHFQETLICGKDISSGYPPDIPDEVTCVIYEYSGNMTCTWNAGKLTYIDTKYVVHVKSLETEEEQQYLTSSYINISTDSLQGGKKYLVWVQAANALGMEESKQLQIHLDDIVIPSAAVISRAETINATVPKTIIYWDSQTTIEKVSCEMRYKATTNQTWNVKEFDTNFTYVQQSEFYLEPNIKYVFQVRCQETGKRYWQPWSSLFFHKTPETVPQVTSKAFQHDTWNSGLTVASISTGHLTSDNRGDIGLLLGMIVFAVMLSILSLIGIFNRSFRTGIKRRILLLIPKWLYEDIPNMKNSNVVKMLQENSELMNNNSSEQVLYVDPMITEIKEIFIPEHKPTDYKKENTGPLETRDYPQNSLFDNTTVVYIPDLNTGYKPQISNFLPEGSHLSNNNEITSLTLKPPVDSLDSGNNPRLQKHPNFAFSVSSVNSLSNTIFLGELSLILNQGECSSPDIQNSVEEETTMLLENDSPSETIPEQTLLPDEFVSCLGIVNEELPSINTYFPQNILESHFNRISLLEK

IC50 [nM] | SMILES
< 500 | CC(=O)N[C@@H](CS)C(=O)N[C@@H](CCC(N)=O)C(=O)N[C@H](C(=O)N[C@@H](Cc1c[nH]c2ccccc12)C(=O)N[C@@H](CCC(N)=O)C(=O)N[C@@H](CS)C(=O)N[C@@H](Cc1ccc(O)cc1)C(=O)N[C@@H](Cc1c[nH]c2ccccc12)C(=O)N[C@@H](CCCNC(=N)N)C(=O)N[C@@H](CCC(=O)O)C(=O)N[C@@H](CC(N)=O)C(=O)NCC(N)=O)[C@@H](C)O (Ac-CQTWQCYWRENG-NH2)
> 1000 | CC(=O)N[C@@H](CS)C(=O)N[C@@H](C)C(=O)N[C@@H](CC(=O)O)C(=O)N[C@@H](Cc1c[nH]c2ccccc12)C(=O)N[C@@H](CCCCN)C(=O)N[C@@H](CS)C(=O)N[C@@H](Cc1ccc(O)cc1)C(=O)N[C@@H](Cc1c[nH]c2ccccc12)C(=O)N[C@@H](Cc1cnc[nH]1)C(=O)N[C@H](C(=O)N[C@@H](Cc1ccccc1)C(=O)NCC(=O)O)[C@@H](C)O
< 500 | CC(=O)N[C@@H](CS)C(=O)N[C@H](C(=O)N[C@H](C(=O)N[C@@H](Cc1c[nH]c2ccccc12)C(=O)N[C@@H](CCC(=O)O)C(=O)N[C@@H](CS)C(=O)N[C@@H](Cc1ccc(O)cc1)C(=O)N[C@@H](Cc1c[nH]c2ccccc12)C(=O)N[C@@H](Cc1cnc[nH]1)C(=O)N[C@@H](CCC(=O)O)C(=O)N[C@@H](Cc1ccc(O)cc1)C(=O)NCC(N)=O)[C@@H](C)O)[C@@H](C)O (Ac-CTTWECYWHEYG-NH2)
> 1000 | CC(C)[C@H](NC(=O)[C@H](Cc1c[nH]c2ccccc12)NC(=O)[C@@H](NC(=O)[C@H](Cc1cnc[nH]1)NC(=O)[C@@H](N)CS)[C@@H](C)O)C(=O)N[C@@H](CS)C(=O)N[C@@H](Cc1ccc(O)cc1)C(=O)N[C@@H](Cc1c[nH]c2ccccc12)C(=O)N[C@@H](Cc1cnc[nH]1)C(=O)N[C@@H](CCC(=O)O)C(=O)N[C@@H](Cc1ccccc1)C(=O)N[C@@H](CO)C(N)=O (H-CHTWVCYWHEFS-NH2)
> 1000 | CC(=O)N[C@H](CCCCN)C(=O)N[C@@H](CO)C(=O)N[C@@H](CS)C(=O)N[C@@H](C)C(=O)N[C@@H](CC(=O)O)C(=O)N[C@@H](Cc1c[nH]c2ccccc12)C(=O)N[C@H](C(=O)N[C@@H](CS)C(=O)N[C@@H](Cc1ccc(O)cc1)C(=O)N[C@@H](Cc1c[nH]c2ccccc12)C(=O)N[C@@H](Cc1cnc[nH]1)C(=O)N[C@H](C(=O)N[C@@H](Cc1ccccc1)C(=O)NCC(=O)O)[C@@H](C)O)C(C)C
500 to 1000 | CSCC[C@H](NC(=O)[C@H](Cc1c[nH]c2ccccc12)NC(=O)[C@H](CC(=O)O)NC(=O)[C@H](C)NC(=O)[C@@H](N)CS)C(=O)N[C@@H](CS)C(=O)N[C@@H](Cc1ccc(O)cc1)C(=O)N[C@@H](Cc1c[nH]c2ccccc12)C(=O)N[C@@H](Cc1cnc[nH]1)C(=O)N[C@@H](CCC(=O)O)C(=O)N[C@@H](Cc1ccc(O)cc1)C(=O)NCC(N)=O (H-CADWMCYWHEYG-NH2)
< 500 | CC(=O)N[C@@H](CS)C(=O)N[C@@H](CCC(=O)O)C(=O)N[C@@H](CC(=O)O)C(=O)N[C@@H](Cc1c[nH]c2ccccc12)C(=O)N[C@@H](CCCCN)C(=O)N[C@@H](CS)C(=O)N[C@@H](Cc1ccc(O)cc1)C(=O)N[C@@H](Cc1c[nH]c2ccccc12)C(=O)N[C@@H](Cc1cnc[nH]1)C(=O)N[C@@H](CCCCN)C(=O)N[C@@H](Cc1ccc(O)cc1)C(=O)NCC(N)=O (Ac-CEDWKCYWHKYG-NH2)
< 500 | CC(=O)N[C@@H](CS)C(=O)N[C@@H](CCC(N)=O)C(=O)N[C@H](C(=O)N[C@@H](Cc1c[nH]c2ccccc12)C(=O)N[C@@H](CCC(=O)O)C(=O)N[C@@H](CS)C(=O)N[C@@H](Cc1ccc(O)cc1)C(=O)N[C@@H](Cc1c[nH]c2ccccc12)C(=O)N[C@@H](Cc1cnc[nH]1)C(=O)N[C@@H](CC(C)C)C(=O)N[C@@H](Cc1ccc(O)cc1)C(=O)NCC(N)=O)[C@@H](C)O (Ac-CQTWECYWHLYG-NH2)

Second part, the molecule before the results:

SMILES | IC50 [nM]
CC(=O)N[C@H](CCCCNC(=O)COCC(=O)NCCCC[C@@H](NC(C)=O)C(=O)N[C@@H](CS)C(=O)N[C@@H](C)C(=O)N[C@@H](CC(=O)O)C(=O)N[C@@H](Cc1c[nH]c2ccccc12)C(=O)N[C@H](C(=O)N[C@@H](CS)C(=O)N[C@@H](Cc1ccc(O)cc1)C(=O)N[C@@H](Cc1c[nH]c2ccccc12)C(=O)N[C@@H](Cc1cnc[nH]1)C(=O)N[C@H](C(=O)N[C@@H](Cc1ccccc1)C(=O)NCC(=O)O)[C@@H](C)O)C(C)C)C(=O)N[C@@H](CS)C(=O)N[C@@H](C)C(=O)N[C@@H](CC(=O)O)C(=O)N[C@@H](Cc1c[nH]c2ccccc12)C(=O)N[C@H](C(=O)N[C@@H](CS)C(=O)N[C@@H](Cc1ccc(O)cc1)C(=O)N[C@@H](Cc1c[nH]c2ccccc12)C(=O)N[C@@H](Cc1cnc[nH]1)C(=O)N[C@H](C(=O)N[C@@H](Cc1ccccc1)C(=O)NCC(=O)O)[C@@H](C)O)C(C)C | > 10000
CC(C)[C@H](NC(=O)[C@H](Cc1ccc(-c2ccccc2)cc1)NC(=O)[C@H](CC(=O)O)NC(=O)[C@H](C)NC(=O)[C@@H](N)CS)C(=O)N[C@@H](CS)C(=O)N[C@@H](Cc1ccc(O)cc1)C(=O)N[C@@H](Cc1c[nH]c2ccccc12)C(=O)N[C@@H](Cc1cnc[nH]1)C(=O)N[C@H](C(=O)N[C@@H](Cc1ccccc1)C(=O)NCC(N)=O)[C@@H](C)O | > 1000
CC(C)[C@H](NC(=O)[C@H](Cc1c[nH]c2ccccc12)NC(=O)[C@H](CC(=O)O)NC(=O)[C@H](C)NC(=O)[C@@H](N)CS)C(=O)N[C@@H](CS)C(=O)N[C@@H](Cc1ccc(O)cc1)C(=O)N1Cc2ccccc2C[C@H]1C(=O)N[C@@H](Cc1cnc[nH]1)C(=O)N[C@H](C(=O)N[C@@H](Cc1ccccc1)C(=O)NCC(N)=O)[C@@H](C)O | > 1000
CC(=O)N[C@@H](CS)C(=O)N[C@@H](CCCNC(=N)N)C(=O)N[C@@H](CC(=O)O)C(=O)N[C@@H](Cc1c[nH]c2ccccc12)C(=O)N[C@@H](CCC(N)=O)C(=O)N[C@@H](CS)C(=O)N[C@@H](Cc1ccc(O)cc1)C(=O)N[C@@H](Cc1c[nH]c2ccccc12)C(=O)N[C@@H](Cc1cnc[nH]1)C(=O)N[C@@H](CCCCN)C(=O)N[C@@H](Cc1ccccc1)C(=O)NCC(=O)NCCOCCC(=O)N[C@H](CCCCN)C(=O)O | < 500
CC(=O)N[C@H](CCCCN)C(=O)N[C@@H](CS)C(=O)N[C@@H](CCCNC(=N)N)C(=O)N[C@@H](CC(=O)O)C(=O)N[C@@H](Cc1c[nH]c2ccccc12)C(=O)N[C@@H](CCC(N)=O)C(=O)N[C@@H](CS)C(=O)N[C@@H](Cc1ccc(O)cc1)C(=O)N[C@@H](Cc1cccc2ccccc12)C(=O)N[C@@H](Cc1cnc[nH]1)C(=O)N[C@H](C(=O)N[C@@H](Cc1cnc[nH]1)C(=O)N(C)CC(=O)NCCOCCC(=O)N[C@H](CCCNC(=N)N)C(N)=O)[C@@H](C)O | 500 to 1000
CC(C)[C@H](NC(=O)[C@H](Cc1c[nH]c2ccccc12)NC(=O)[C@H](CC(=O)O)NC(=O)[C@H](C)NC(=O)[C@@H](N)CS)C(=O)N[C@@H](CS)C(=O)N[C@@H](Cc1ccc(O)cc1)C(=O)N[C@@H](Cc1cccc2ccccc12)C(=O)N[C@@H](Cc1cnc[nH]1)C(=O)N(C)CC(=O)N[C@@H](Cc1ccccc1)C(=O)O | > 1000
C[C@@H](O)[C@H](NC(=O)[C@@H]1CCCN1C(=O)[C@@H](N)Cc1ccccc1)C(=O)N[C@@H](Cc1c[nH]c2ccccc12)C(=O)N[C@@H](CCC(=O)O)C(=O)N[C@@H](Cc1c[nH]c2ccccc12)C(=O)N[C@@H](Cc1ccc(O)cc1)C(=O)N[C@@H](Cc1c[nH]c2ccccc12)C(=O)N[C@@H](CSSC[C@H](NC(=O)[C@H](Cc1c[nH]c2ccccc12)NC(=O)[C@H](Cc1ccc(O)cc1)NC(=O)[C@H](Cc1c[nH]c2ccccc12)NC(=O)[C@H](CCC(=O)O)NC(=O)[C@H](Cc1c[nH]c2ccccc12)NC(=O)[C@@H](NC(=O)[C@@H]1CCCN1C(=O)[C@@H](N)Cc1ccccc1)[C@@H](C)O)C(=O)N[C@@H](CC(N)=O)C(=O)N[C@@H](CCCNC(=N)N)C(=O)N[C@@H](CC(=O)O)C(N)=O)C(=O)N[C@@H](CC(N)=O)C(=O)N[C@@H](CCCNC(=N)N)C(=O)N[C@@H](CC(=O)O)C(N)=O (I: H-FPTWEWYWCNRD-NH2 / II: H-FPTWEWYWCNRD-NH2; disulfide I:9-II:9) | 1000 to 10000
CC(=O)N[C@@H](C)C(=O)N[C@H](C(=O)N[C@@H](CC(=O)O)C(=O)N[C@@H](Cc1c[nH]c2ccccc12)C(=O)N[C@H](C(=O)N[C@H](C(=O)N[C@@H](Cc1ccc(O)cc1)C(=O)N[C@@H](Cc1c[nH]c2ccccc12)C(=O)N[C@@H](CCCN)C(=O)N[C@@H](CN)C(=O)N[C@@H](Cc1ccccc1)C(=O)NCC(=O)NCCOCC(=O)N[C@H](CCCCN)C(N)=O)C(C)(C)S)C(C)C)C(C)(C)S | > 30000
CC(=O)N[C@@H](CS)C(=O)N[C@@H](CCC(N)=O)C(=O)N[C@H](C(=O)N[C@@H](Cc1c[nH]c2ccccc12)C(=O)N[C@@H](CCC(N)=O)C(=O)N[C@@H](CS)C(=O)N[C@@H](Cc1ccc(O)cc1)C(=O)N[C@@H](Cc1c[nH]c2ccccc12)C(=O)N(C)[C@@H](CCCNC(=N)N)C(=O)N[C@@H](CCC(=O)O)C(=O)N[C@@H](CC(N)=O)C(=O)NCC(=O)NCCOCC(=O)N[C@H](CCCCN)C(N)=O)[C@@H](C)O | > 1000
CC(=O)N[C@H]1CCSC[C@@H](C(=O)N[C@@H](Cc2ccc(OCCN)cc2)C(=O)N[C@@H](Cc2ccc3ccccc3c2)C(=O)N[C@@](C)(CCCCN)C(=O)N[C@@H](CCC(=O)O)C(=O)N[C@@H](CC(N)=O)C(=O)NCC(N)=O)NC(=O)[C@H](CCC(N)=O)NC(=O)[C@@H]2Cc3c([nH]c4ccccc34)CN2C(=O)[C@H]([C@@H](C)O)NC(=O)[C@H](CCC(N)=O)NC1=O | 100 to 1000
